# Data: patent US8168832B2, “2,4,6-trialkylphenyl substituted cyclopentane-1,3-dione” (Bayer Cropscience AG, priority 2006, dated 2012)
# System: crop plants (cereal)
# Test: Container trials with cereal in the greenhouse, mefenpyr 1 day prior to herbicide application (Example B, use of safeners)
# Assay type: in vivo
# Conditions: 10 days after application; 50 g of a.i./ha; without safener
# Procedure: Seeds of monocotyledonous and dicotyledonous weed and crop plants are placed into sandy loam in wood fiber pots or in plastic pots, covered with soil and cultivated in a greenhouse, during the vegetation period also outdoors outside of the greenhouse, under good growth conditions. 2 to 3 weeks after sowing, the test plants are treated at the one- to three-leaf stage. The test compounds, formulated as wettable powders (WP) or liquid (EC), are, in various dosages at a water application rate of 300 l/ha (converted), with wetting agent (0.2 to 0.3%) added, sprayed onto the plants and the surface of the soil. […]
# If it is additionally to be tested as to whether safeners can improve the plant compatibility of test substances in the case of crop plants, the following options are used for applying the safener: • seeds of the crop plants are, before sowing, dressed with the safener substance (the amount of safener stated in percent, based on the weight of the seed) • before the application of the test substances, the crop plants are sprayed with the safener at a certain application rate per hectare (usually 1 day before the application of the test substances) • the safener is applied together with the test substance as a tank mix (the amount of safener is stated in g/ha or as a ratio, based on the herbicide). • By comparing the effect of test substances on crop plants without or with safener treatment, it is possible to assess the effect of the safener substance.
# Container Trials with Cereal in the Greenhouse
# Mefenpyr 1 Day Prior to Herbicide Application
row,SMILES,Summer wheat observed (%)
1,CCc1cc(C)cc(C)c1C1=C(OC(=O)COC)C2(CCCC2)CC1=O [I-b-11],30

# Same assay, conditions: 10 days after application; 100 g of a.i./ha; without safener
row,SMILES,Summer wheat observed (%)
1,CCc1cc(C)cc(C)c1C1=C(OC(=O)COC)C2(CCCC2)CC1=O [I-b-11],50

# Same assay, conditions: 28 days after application; 12.5 g of a.i./ha; without safener
SMILES,Summer wheat observed (%),Summer barley observed (%)
CCc1cc(C)cc(CC)c1C1=C(OC(=O)COC)[C@H]2CCCC[C@@H]2C1=O (relative stereo) [I-b-27],10,–
CCc1cc(C)cc(CC)c1C1=C(OC(=O)C(C)C)[C@H]2CCCC[C@@H]2C1=O (relative stereo) [I-b-28],10,20
CCc1cc(C)cc(C)c1C1C(=O)[C@H]2CCCC[C@@H]2C1=O [I-a-1],10,5
CCc1cc(C)cc(C)c1C1=C(OC(=O)COC)C2CCCCC2C1=O (stereo not shown) [I-b-13],20,10
CCc1cc(C)cc(C)c1C1=C(OC(=O)COC)C2CCCCC2C1=O (stereo not shown) [I-b-15],10,–
CCC(=O)OC1=C(c2c(C)cc(C)cc2CC)C(=O)C2CCCCC12 (stereo not shown) [I-b-21],20,5
CCOC(=O)OC1=C(c2c(C)cc(C)cc2CC)C(=O)C2CCCCC12 (stereo not shown) [I-c-4],10,5
CCOC(=O)OC1=C(c2c(CC)cc(C)cc2CC)C(=O)C2CCCCC12 (stereo not shown) [I-c-9],10,10
CCc1cc(C)cc(CC)c1C1=C(OC(=O)OC)C2CCCCC2C1=O (stereo not shown) [I-c-14],20,–

# Same assay, conditions: 28 days after application; 25 g of a.i./ha; without safener
SMILES,Summer wheat observed (%),Summer barley observed (%)
CCc1cc(C)cc(CC)c1C1=C(OC(=O)COC)[C@H]2CCCC[C@H]2C1=O (relative stereo) [I-b-25],10,–
CCc1cc(C)cc(CC)c1C1=C(OC(=O)COC)[C@H]2CCCC[C@@H]2C1=O (relative stereo) [I-b-27],20,–
CCc1cc(C)cc(CC)c1C1=C(OC(=O)C(C)C)[C@H]2CCCC[C@@H]2C1=O (relative stereo) [I-b-28],70,30
CCc1cc(C)cc(C)c1C1C(=O)[C@H]2CCCC[C@@H]2C1=O [I-a-1],40,50
CCc1cc(C)cc(C)c1C1=C(O)C2CCCCCC2C1=O (stereo not shown) [I-a-18],60,20
CCc1cc(C)cc(C)c1C1=C(OC(=O)COC)C2CCCCC2C1=O (stereo not shown) [I-b-13],70,20
CCc1cc(C)cc(C)c1C1=C(OC(=O)COC)C2CCCCC2C1=O (stereo not shown) [I-b-15],30,10
CCC(=O)OC1=C(c2c(C)cc(C)cc2CC)C(=O)C2CCCCC12 (stereo not shown) [I-b-21],60,30
CCOC(=O)OC1=C(c2c(C)cc(C)cc2CC)C(=O)C2CCCCC12 (stereo not shown) [I-c-4],20,10
CCOC(=O)OC1=C(c2c(CC)cc(C)cc2CC)C(=O)C2CCCCC12 (stereo not shown) [I-c-9],30,20
CCc1cc(C)cc(CC)c1C1=C(OC(=O)OC)C2CCCCC2C1=O (stereo not shown) [I-c-10],40,25
CCc1cc(C)cc(CC)c1C1=C(OC(=O)OC)C2CCCCC2C1=O (stereo not shown) [I-c-14],80,30

# Same assay, conditions: 28 days after application; 50 g of a.i./ha; without safener
SMILES,Summer barley observed (%),Summer wheat observed (%)
CCc1cc(C)cc(CC)c1C1=C(OC(=O)COC)[C@H]2CCCC[C@H]2C1=O (relative stereo) [I-b-25],40,50
CCc1cc(C)cc(CC)c1C1=C(OC(=O)COC)[C@H]2CCCC[C@@H]2C1=O (relative stereo) [I-b-27],20,40
CCc1cc(C)cc(CC)c1C1=C(OC(=O)C(C)C)[C@H]2CCCC[C@@H]2C1=O (relative stereo) [I-b-28],75,80
CCc1cc(C)cc(C)c1C1C(=O)[C@H]2CCCC[C@@H]2C1=O [I-a-1],70,50
CCc1cc(C)cc(C)c1C1=C(O)C2CCCCCC2C1=O (stereo not shown) [I-a-18],50,70
CCc1cc(C)cc(C)c1C1=C(OC(=O)COC)C2CCCCC2C1=O (stereo not shown) [I-b-13],90,85
CCc1cc(C)cc(C)c1C1=C(OC(=O)COC)C2CCCCC2C1=O (stereo not shown) [I-b-15],30,50
CCC(=O)OC1=C(c2c(C)cc(C)cc2CC)C(=O)C2CCCCC12 (stereo not shown) [I-b-21],50,70
CCOC(=O)OC1=C(c2c(C)cc(C)cc2CC)C(=O)C2CCCCC12 (stereo not shown) [I-c-4],30,90
CCOC(=O)OC1=C(c2c(CC)cc(C)cc2CC)C(=O)C2CCCCC12 (stereo not shown) [I-c-9],40,60
CCc1cc(C)cc(CC)c1C1=C(OC(=O)OC)C2CCCCC2C1=O (stereo not shown) [I-c-10],50,80
CCc1cc(C)cc(CC)c1C1=C(OC(=O)OC)C2CCCCC2C1=O (stereo not shown) [I-c-14],93,95

# Same assay, conditions: 28 days after application; 100 g of a.i./ha; without safener
SMILES,Summer barley observed (%),Summer wheat observed (%)
CCc1cc(C)cc(CC)c1C1=C(OC(=O)COC)[C@H]2CCCC[C@H]2C1=O (relative stereo) [I-b-25],95,70
CCc1cc(C)cc(CC)c1C1=C(OC(=O)COC)[C@H]2CCCC[C@@H]2C1=O (relative stereo) [I-b-27],50,70
CCc1cc(C)cc(C)c1C1C(=O)[C@H]2CCCC[C@@H]2C1=O [I-a-1],–,50
CCc1cc(C)cc(C)c1C1=C(O)C2CCCCCC2C1=O (stereo not shown) [I-a-18],90,80
CCc1cc(C)cc(C)c1C1=C(OC(=O)COC)C2CCCCC2C1=O (stereo not shown) [I-b-15],90,85
CCC(=O)OC1=C(c2c(C)cc(C)cc2CC)C(=O)C2CCCCC12 (stereo not shown) [I-b-21],95,–
CCOC(=O)OC1=C(c2c(C)cc(C)cc2CC)C(=O)C2CCCCC12 (stereo not shown) [I-c-4],80,95
CCOC(=O)OC1=C(c2c(CC)cc(C)cc2CC)C(=O)C2CCCCC12 (stereo not shown) [I-c-9],90,70
CCc1cc(C)cc(CC)c1C1=C(OC(=O)OC)C2CCCCC2C1=O (stereo not shown) [I-c-10],90,85
